Source: ChEMBL document CHEMBL1129998, “Pharmacological options in the treatment of benign prostatic hyperplasia” (J Med Chem, 1997)

How the values were obtained:
[1] = biological target: T1, Steroid 5-alpha-reductase (Rattus norvegicus, UniProt P24008+P31214); assay: Inhibition of rat 5-alpha reductase isozyme.; assay type: protein assay
T1 sequence (P24008 whole entry): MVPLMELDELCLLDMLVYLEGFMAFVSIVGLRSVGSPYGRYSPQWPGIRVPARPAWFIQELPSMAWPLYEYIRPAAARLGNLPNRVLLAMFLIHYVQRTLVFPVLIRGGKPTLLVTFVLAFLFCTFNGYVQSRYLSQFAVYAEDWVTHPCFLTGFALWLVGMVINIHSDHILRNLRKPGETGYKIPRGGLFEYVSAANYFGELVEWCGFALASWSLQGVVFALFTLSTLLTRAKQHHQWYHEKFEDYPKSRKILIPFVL
T1 sequence (P31214 whole entry): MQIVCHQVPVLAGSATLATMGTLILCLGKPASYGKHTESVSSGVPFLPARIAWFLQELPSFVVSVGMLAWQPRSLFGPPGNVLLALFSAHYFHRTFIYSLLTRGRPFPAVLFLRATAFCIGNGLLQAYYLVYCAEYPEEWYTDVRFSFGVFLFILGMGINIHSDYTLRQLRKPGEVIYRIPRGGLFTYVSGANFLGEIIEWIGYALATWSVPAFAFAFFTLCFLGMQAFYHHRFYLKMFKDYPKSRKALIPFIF

[2] = Inhibitory concentration on human 5-alpha reductase isozyme
[3] = biological target: T1, Steroid 5-alpha-reductase; assay: Apparent binding affinity on rat 5-alpha reductase isozyme; assay type: protein assay
[4] = Apparent binding affinity on human 5-alpha reductase isozyme
[5] = biological target: T2, Alpha-1B adrenergic receptor (Rattus norvegicus, UniProt P15823); assay: Binding affinity was tested on CEC-pretreated rat liver Alpha-1B adrenergic receptor
T2 sequence (P15823 whole entry): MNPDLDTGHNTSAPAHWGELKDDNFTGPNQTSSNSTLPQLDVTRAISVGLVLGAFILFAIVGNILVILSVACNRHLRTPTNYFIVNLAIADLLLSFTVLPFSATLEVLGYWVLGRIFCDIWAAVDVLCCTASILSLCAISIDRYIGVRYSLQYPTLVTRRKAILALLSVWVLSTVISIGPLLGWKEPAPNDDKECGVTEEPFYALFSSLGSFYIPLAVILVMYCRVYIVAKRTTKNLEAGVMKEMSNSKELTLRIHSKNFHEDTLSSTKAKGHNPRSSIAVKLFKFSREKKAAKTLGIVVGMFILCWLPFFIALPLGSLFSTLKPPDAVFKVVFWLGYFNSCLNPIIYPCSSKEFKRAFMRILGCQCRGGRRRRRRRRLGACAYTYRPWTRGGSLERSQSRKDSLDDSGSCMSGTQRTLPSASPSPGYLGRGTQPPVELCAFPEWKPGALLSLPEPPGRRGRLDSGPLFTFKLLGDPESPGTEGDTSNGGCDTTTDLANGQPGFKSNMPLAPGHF

[6] = biological target: T3, Alpha-1A adrenergic receptor (Rattus norvegicus, UniProt P43140); assay: Binding affinity was tested on CEC-pretreated rat hippocampus Alpha-1A adrenergic receptor; assay type: tissue-based
T3 sequence (P43140 whole entry): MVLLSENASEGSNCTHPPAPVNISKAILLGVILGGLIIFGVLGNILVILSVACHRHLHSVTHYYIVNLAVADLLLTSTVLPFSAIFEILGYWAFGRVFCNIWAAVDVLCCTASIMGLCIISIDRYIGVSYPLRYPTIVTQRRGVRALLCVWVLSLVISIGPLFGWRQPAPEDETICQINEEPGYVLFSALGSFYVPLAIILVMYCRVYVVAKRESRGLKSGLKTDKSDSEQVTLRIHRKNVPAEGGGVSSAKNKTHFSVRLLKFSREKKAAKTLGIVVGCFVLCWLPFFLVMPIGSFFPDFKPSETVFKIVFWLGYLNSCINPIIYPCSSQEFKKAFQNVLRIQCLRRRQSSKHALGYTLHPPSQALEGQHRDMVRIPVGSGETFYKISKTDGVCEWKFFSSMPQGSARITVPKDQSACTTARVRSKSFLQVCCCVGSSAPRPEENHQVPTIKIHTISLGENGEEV

[7] = biological target: T4, 3-oxo-5-alpha-steroid 4-dehydrogenase 2 (Homo sapiens, UniProt P31213); assay: Inhibitory concentration on human prostatic 5-alpha reductase 2 isozyme
T4 sequence (P31213 whole entry): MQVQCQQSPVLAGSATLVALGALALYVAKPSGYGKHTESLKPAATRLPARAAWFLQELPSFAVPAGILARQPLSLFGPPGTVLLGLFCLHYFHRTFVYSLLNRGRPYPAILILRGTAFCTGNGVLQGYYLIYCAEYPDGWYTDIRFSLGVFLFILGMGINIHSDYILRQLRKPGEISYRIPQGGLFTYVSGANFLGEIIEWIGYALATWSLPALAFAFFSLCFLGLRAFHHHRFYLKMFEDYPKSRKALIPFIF

[8] = biological target: T5, Adrenergic receptor alpha-1 (Homo sapiens, UniProt P35348+P25100+P35368); assay: pA2 for Alpha-1 adrenergic receptor from human prostate.; assay type: tissue-based, Prostate gland
T5 sequence (P35348 whole entry): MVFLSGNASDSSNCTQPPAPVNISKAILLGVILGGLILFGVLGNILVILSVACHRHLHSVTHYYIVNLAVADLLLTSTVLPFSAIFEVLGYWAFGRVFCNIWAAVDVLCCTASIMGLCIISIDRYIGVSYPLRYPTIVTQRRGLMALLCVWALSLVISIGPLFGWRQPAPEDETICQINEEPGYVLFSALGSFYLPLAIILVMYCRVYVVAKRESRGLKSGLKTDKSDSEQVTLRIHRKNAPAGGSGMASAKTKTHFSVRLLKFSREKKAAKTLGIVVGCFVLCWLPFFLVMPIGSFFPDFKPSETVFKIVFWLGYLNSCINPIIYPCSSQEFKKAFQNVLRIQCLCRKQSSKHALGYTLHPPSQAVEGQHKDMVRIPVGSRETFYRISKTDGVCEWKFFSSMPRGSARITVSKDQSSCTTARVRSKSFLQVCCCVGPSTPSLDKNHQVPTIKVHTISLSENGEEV
T5 sequence (P25100 whole entry): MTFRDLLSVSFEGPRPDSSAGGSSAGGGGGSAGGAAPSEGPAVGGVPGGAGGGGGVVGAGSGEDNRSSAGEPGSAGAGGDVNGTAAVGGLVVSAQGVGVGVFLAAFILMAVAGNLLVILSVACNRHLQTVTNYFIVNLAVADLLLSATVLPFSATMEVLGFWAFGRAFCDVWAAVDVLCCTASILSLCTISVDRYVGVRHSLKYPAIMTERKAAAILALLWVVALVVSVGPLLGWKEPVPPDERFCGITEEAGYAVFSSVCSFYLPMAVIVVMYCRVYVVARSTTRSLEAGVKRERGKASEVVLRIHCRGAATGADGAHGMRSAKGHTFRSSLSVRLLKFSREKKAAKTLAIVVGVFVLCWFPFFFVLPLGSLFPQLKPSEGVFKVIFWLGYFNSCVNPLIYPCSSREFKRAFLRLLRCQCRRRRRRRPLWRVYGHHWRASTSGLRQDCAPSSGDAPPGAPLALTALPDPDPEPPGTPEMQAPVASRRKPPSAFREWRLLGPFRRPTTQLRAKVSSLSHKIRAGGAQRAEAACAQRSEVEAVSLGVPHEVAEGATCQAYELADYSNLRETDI
T5 sequence (P35368 whole entry): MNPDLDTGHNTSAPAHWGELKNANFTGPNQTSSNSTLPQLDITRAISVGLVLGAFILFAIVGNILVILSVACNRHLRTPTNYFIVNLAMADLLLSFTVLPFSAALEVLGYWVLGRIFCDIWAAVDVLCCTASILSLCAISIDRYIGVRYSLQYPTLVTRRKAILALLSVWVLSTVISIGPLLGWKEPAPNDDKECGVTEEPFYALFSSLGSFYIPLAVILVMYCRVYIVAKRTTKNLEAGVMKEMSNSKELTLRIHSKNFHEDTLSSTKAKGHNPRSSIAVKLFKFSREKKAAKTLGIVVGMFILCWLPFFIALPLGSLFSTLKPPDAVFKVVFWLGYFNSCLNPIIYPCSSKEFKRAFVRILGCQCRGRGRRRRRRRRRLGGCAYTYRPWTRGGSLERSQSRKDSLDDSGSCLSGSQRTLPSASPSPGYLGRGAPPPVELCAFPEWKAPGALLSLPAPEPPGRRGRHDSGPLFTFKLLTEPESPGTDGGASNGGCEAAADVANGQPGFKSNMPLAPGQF

[9] = biological target: T6, Alpha-1D adrenergic receptor (Homo sapiens, UniProt P25100); assay: Binding affinity was tested on human Alpha-1D adrenergic receptor
T6 sequence (P25100 whole entry): T5 sequence (P25100 whole entry)

[10] = biological target: T7, Alpha-1B adrenergic receptor (Homo sapiens, UniProt P35368); assay: Binding affinity was tested on human Alpha-1B adrenergic receptor
T7 sequence (P35368 whole entry): T5 sequence (P35368 whole entry)

[11] = Dose (iv) for 20% reduction of mean blood pressure in rat (ID20) with the dose for 50% inhibition of norepinephrine-mediated contraction of proximal urethra (ID50) in cat; assay type: functional

CC(C)N(C(=O)[C@H]1CC[C@H]2[C@@H]3CC[C@H]4C(F)=C(C(=O)O)CC[C@]4(C)[C@H]3CC[C@]12C)C(C)C
IC50 [1]: 0.035 µM
IC50 [2]: 0.026 µM

CC(C)N(C(=O)C1=CCC2C3CCC4=CC(C(=O)O)=CC[C@]4(C)C3CC[C@]12C)C(C)C (some centres not stated)
IC50 [1]: 0.047 µM
IC50 [2]: 0.007 µM

CC(C)N(C(=O)[C@H]1CCC2C3CC=C4C=C(CO)CC[C@]4(C)C3CC[C@@]21C)C(C)C (some centres not stated)
Ki [3]: 5.3 µM
Ki [4]: 4.2 µM

CC(C)N(C(=O)[C@H]1CCC2C3CC=C4C=C(P(=O)(O)O)CC[C@]4(C)C3CC[C@@]21C)C(C)C (some centres not stated)
Ki [3]: 0.2 µM
Ki [4]: 0.025 µM

Cc1c(-c2ccccc2)oc2c(C(=O)NCCCN3CCN(c4ccccc4OC(C)C)CC3)cccc2c1=O
IC50 [5]: 0.108 µM
IC50 [6]: 0.001 µM

CN1C(=O)CC[C@]2(C)C3CC[C@@]4(C)C(CC[C@@H]4C(=O)N(C(=O)NC(C)(C)C)C(C)(C)C)C3CCC12 (some centres not stated)
IC50 [7]: 0.212 µM

C=Cc1sc2ccc(Cl)c3c2c1CN(C)CC3
pA2 [8]: 7.5
Ki [9]: 0.00316 µM
Ki [10]: 0.02 µM

CC(C)NC(=O)N(C(=O)[C@H]1CCC2C3CCC4N(C)C(=O)C=C[C@]4(C)C3CC[C@@]21C)C(C)C (some centres not stated)
IC50 [7]: 1.22 µM

CN1C(=O)CC[C@]2(C)C3CC[C@@]4(C)C(CC[C@@H]4C(=O)N(C(=O)NC4CCCCC4)C4CCCCC4)C3CCC12 (some centres not stated)
IC50 [7]: 0.041 µM

COc1ccccc1N1CCN(CCCNc2nccc(C(N)=O)n2)CC1
Ratio [11]: 31

CC(C)N(C(=O)[C@H]1CCC2C3C=CC4=CC(C(=O)O)=CC[C@]4(C)C3CC[C@@]21C)C(C)C (some centres not stated)
IC50 [1]: 0.3 µM
IC50 [2]: 0.012 µM

Cc1ccc(Cl)cc1N1CCN(CCCNC(=O)c2cccc3c(=O)c(C)c(-c4ccccc4)oc23)CC1
IC50 [5]: 0.029 µM
IC50 [6]: 0.001 µM

CC(C)NC(=O)N(C(=O)[C@H]1CCC2C3CCC4NC(=O)CC[C@]4(C)C3CC[C@@]21C)C(C)C (some centres not stated)
IC50 [7]: 0.381 µM
